Experimental data: US20260070945A1, “MACROCYCLIC IMMUNOMODULATORS” (Bristol-Myers Squibb Company, priority 2022, published 2026)
Where a SMILES comes first, the peptide text is derived from it. Bridges are numbered along the chain shown (N, C = ends). [ ]: non-standard residue; d: D form. The star is where a group is joined. Phe(4-CH2CH2COOH) = N[C@@H](Cc1ccc(CCC(=O)O)cc1)C(=O)O; Trp(βS-Me) = C[C@@H](c1c[nH]c2ccccc12)[C@H](N)C(=O)O; Phe(4-COOH) = N[C@@H](Cc1ccc(C(=O)O)cc1)C(=O)O; Bip = N[C@@H](Cc1ccc(-c2ccccc2)cc1)C(=O)O; Phe(3-Me) = Cc1cccc(C[C@H](N)C(=O)O)c1; Cha = N[C@@H](CC1CCCCC1)C(=O)O; Carboxymethyl = O=C(O)C*; NMeA = CN[C@@H](C)C(=O)O; Aun = NCCCCCCCCCCC(=O)O; Dab = NCC[C@H](N)C(=O)O; Dap = NC[C@H](N)C(=O)O; AEEA = NCCOCCOCC(=O)O; Ac3c = NC1(C(=O)O)CC1; Piv = CC(C)(C)C(=O)*

target: T1, PD-1/PD-L1 interaction (PE-labeled human PD-L1-Ig binding to Jurkat cell line over-expressing human PD-1) (Homo sapiens, UniProt Q15116); experiment: Jurkat-PD-1 Cell Binding High-Content Screening Assay (CBA); conditions: Jurkat-hPD-1 cells, PE-labeled PD-L1-Ig 20 nM final; read-out: Jurkat HPD1 PDL1 IC50
T1 construct: expressed in transfected cells; host or cells: Jurkat
T1 sequence (Q15116 25-288): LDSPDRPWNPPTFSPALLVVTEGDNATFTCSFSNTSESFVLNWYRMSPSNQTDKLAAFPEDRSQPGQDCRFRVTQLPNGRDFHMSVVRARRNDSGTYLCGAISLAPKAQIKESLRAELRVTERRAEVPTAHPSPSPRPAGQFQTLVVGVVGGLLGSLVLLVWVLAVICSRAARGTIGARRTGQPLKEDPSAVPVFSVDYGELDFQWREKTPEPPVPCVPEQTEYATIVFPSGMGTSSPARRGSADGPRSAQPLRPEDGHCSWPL
Outline: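 In this imaging assay, cells in 10% FCS medium see compound for 2 h at 37 °C and then labeled ligand at 20 nM final for 1 h. Paraformaldehyde fixation, Hoechst 33342 staining and dPBS washes precede image capture.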

Row | IC50 | SMILES
1 | 8.9 nM | Cc1cccc(C[C@@H]2NC(=O)[C@H](CC(=O)O)NC(=O)[C@H](Cc3ccc(OCC(=O)O)cc3)NC(=O)[C@H](CN)NC(=O)CSC[C@@H](C(=O)N[C@@H](CCN)C(=O)NCCCCCCCCCCC(=O)O)NC(=O)[C@H]([C@@H](C)O)NC(=O)[C@H](C(C)C)NC(=O)[C@H](CC3CCCCC3)NC(=O)[C@H](CCN)NC(=O)[C@@H](CC(C)C)NC(=O)[C@H](C)N(C)C(=O)[C@H](Cc3ccc(OCC(=O)O)cc3)NC(=O)[C@H](Cc3ccc(-c4ccccc4)cc3)NC(=O)[C@H](Cc3ccc(CCC(=O)O)cc3)NC2=O)c1 [Example 1262] ({CH2CO}-[Dap]Y(Carboxymethyl)D[Phe(3-Me)][Phe(4-CH2CH2COOH)][Bip]Y(Carboxymethyl)[NMeA][dL][Dab][Cha]VTC[Dab][Aun]-OH; thioether N-14)
2 | 12.7 nM | Cc1cccc(C[C@@H]2NC(=O)[C@H](CC(=O)O)NC(=O)[C@H](Cc3ccc(OCC(=O)O)cc3)NC(=O)[C@H](CN)NC(=O)CSC[C@@H](C(=O)N[C@@H](CCN)C(=O)NCCCCCCCCCCC(=O)O)NC(=O)[C@H](CO)NC(=O)[C@H](C(C)C)NC(=O)[C@H](CC3CCCCC3)NC(=O)[C@H](CCN)NC(=O)[C@@H](CC(C)C)NC(=O)[C@H](C)N(C)C(=O)[C@H](Cc3ccc(OCC(=O)O)cc3)NC(=O)[C@H](Cc3ccc(-c4ccccc4)cc3)NC(=O)[C@H](Cc3ccc(OCC(=O)O)cc3)NC2=O)c1 [Example 1263] ({CH2CO}-[Dap]Y(Carboxymethyl)D[Phe(3-Me)]Y(Carboxymethyl)[Bip]Y(Carboxymethyl)[NMeA][dL][Dab][Cha]VSC[Dab][Aun]-OH; thioether N-14)
3 | 31.8 nM | Cc1cccc(C[C@@H]2NC(=O)[C@H](CC(=O)O)NC(=O)[C@H](Cc3ccc(OCC(=O)O)cc3)NC(=O)[C@H](Cc3ccc(OCC(=O)O)cc3)NC(=O)CSC[C@@H](C(=O)N[C@@H](CCN)C(=O)NCCCCCCCCCCC(=O)O)NC(=O)[C@H]([C@@H](C)O)NC(=O)[C@H](C(C)C)NC(=O)[C@H](CC3CCCCC3)NC(=O)[C@H](CCN)NC(=O)[C@@H](CC(C)C)NC(=O)[C@H](C)N(C)C(=O)[C@H](Cc3ccc(OCC(=O)O)cc3)NC(=O)[C@H](Cc3ccc(-c4ccccc4)cc3)NC(=O)[C@H](C(C)C)NC2=O)c1 [Example 1264] ({CH2CO}-Y(Carboxymethyl)Y(Carboxymethyl)D[Phe(3-Me)]V[Bip]Y(Carboxymethyl)[NMeA][dL][Dab][Cha]VTC[Dab][Aun]-OH; thioether N-14)
4 | 44.1 nM | Cc1cccc(C[C@@H]2NC(=O)[C@H](CC(=O)O)NC(=O)[C@H](Cc3ccc(OCC(=O)O)cc3)NC(=O)[C@H](Cc3ccc(OCC(=O)O)cc3)NC(=O)CSC[C@@H](C(=O)N[C@@H](CCN)C(=O)NCCCCCCCCCCC(=O)O)NC(=O)[C@H](CO)NC(=O)[C@H](C(C)C)NC(=O)[C@H](CC3CCCCC3)NC(=O)[C@H](CCN)NC(=O)[C@@H](CC(C)C)NC(=O)[C@H](C)N(C)C(=O)[C@H](Cc3ccc(OCC(=O)O)cc3)NC(=O)[C@H](Cc3ccc(-c4ccccc4)cc3)NC(=O)[C@H](C(C)C)NC2=O)c1 [Example 1265] ({CH2CO}-Y(Carboxymethyl)Y(Carboxymethyl)D[Phe(3-Me)]V[Bip]Y(Carboxymethyl)[NMeA][dL][Dab][Cha]VSC[Dab][Aun]-OH; thioether N-14)

Further lines, the compound ahead of its results:

Row | SMILES | IC50
5 | Cc1cccc(C[C@@H]2NC(=O)[C@H](CC(=O)O)NC(=O)[C@H](Cc3ccc(OCC(=O)O)cc3)NC(=O)[C@H](CN)NC(=O)CSC[C@@H](C(=O)N[C@@H](CCN)C(=O)NCCCCCCCCCCC(=O)O)NC(=O)[C@H](CO)NC(=O)[C@H](C(C)C)NC(=O)[C@H](CC3CCCCC3)NC(=O)[C@H](CCN)NC(=O)[C@@H](CC(C)C)NC(=O)[C@H](C)N(C)C(=O)[C@H](Cc3ccc(OCC(=O)O)cc3)NC(=O)[C@H](Cc3ccc(-c4ccccc4)cc3)NC(=O)[C@H](C(C)C)NC2=O)c1 [Example 1261] ({CH2CO}-[Dap]Y(Carboxymethyl)D[Phe(3-Me)]V[Bip]Y(Carboxymethyl)[NMeA][dL][Dab][Cha]VSC[Dab][Aun]-OH; thioether N-14) | 16.6 nM
6 | Cc1cccc(C[C@@H]2NC(=O)[C@H](CC(=O)O)NC(=O)[C@H](Cc3ccc(OCC(=O)O)cc3)NC(=O)[C@H](CCCNC(=N)N)NC(=O)CSC[C@@H](C(=O)N[C@@H](CCN)C(=O)NCCCCCCCCCCC(=O)O)NC(=O)[C@@H](CO)NC(=O)[C@H](C(C)C)NC(=O)[C@H](CC3CCCCC3)NC(=O)[C@H](CCN)NC(=O)[C@@H](CC(C)C)NC(=O)[C@H](C)N(C)C(=O)[C@H](Cc3ccc(OCC(=O)O)cc3)NC(=O)[C@H](Cc3ccc(-c4ccccc4)cc3)NC(=O)[C@H](C(C)C)NC2=O)c1 [Example 1266] ({CH2CO}-RY(Carboxymethyl)D[Phe(3-Me)]V[Bip]Y(Carboxymethyl)[NMeA][dL][Dab][Cha]V[dS]C[Dab][Aun]-OH; thioether N-14) | 26.6 nM
7 | Cc1cccc(C[C@@H]2NC(=O)[C@H](CC(=O)O)NC(=O)[C@H](Cc3ccc(CCC(=O)O)cc3)NC(=O)[C@H](CCCNC(=N)N)NC(=O)CSC[C@@H](C(=O)N[C@@H](CCN)C(=O)NCCCCCCCCCCC(=O)O)NC(=O)[C@@H](CO)NC(=O)[C@H](C(C)C)NC(=O)[C@H](CC3CCCCC3)NC(=O)[C@H](CCN)NC(=O)[C@@H](CC(C)C)NC(=O)[C@H](C)N(C)C(=O)[C@H](Cc3ccc(O)cc3)NC(=O)[C@H](Cc3ccc(-c4ccccc4)cc3)NC(=O)[C@H](C(C)C)NC2=O)c1 [Example 1267] ({CH2CO}-R[Phe(4-CH2CH2COOH)]D[Phe(3-Me)]V[Bip]Y[NMeA][dL][Dab][Cha]V[dS]C[Dab][Aun]-OH; thioether N-14) | 22.8 nM
8 | Cc1cccc(C[C@@H]2NC(=O)[C@H](CC(=O)O)NC(=O)[C@H](Cc3ccc(CCC(=O)O)cc3)NC(=O)[C@H](CCNC(=O)C(C)(C)C)NC(=O)CSC[C@@H](C(=O)N[C@@H](CCN)C(=O)NCCCCCCCCCCC(=O)O)NC(=O)[C@H]([C@@H](C)O)NC(=O)[C@H](C(C)C)NC(=O)[C@H](CC3CCCCC3)NC(=O)[C@H](CCN)NC(=O)[C@@H](CC(C)C)NC(=O)[C@H](C)N(C)C(=O)[C@H](Cc3ccc(OCC(=O)O)cc3)NC(=O)[C@H](Cc3ccc(-c4ccccc4)cc3)NC(=O)[C@H](Cc3ccc(C(=O)O)cc3)NC2=O)c1 [Example 1269] ({CH2CO}-[Dab](Piv)[Phe(4-CH2CH2COOH)]D[Phe(3-Me)][Phe(4-COOH)][Bip]Y(Carboxymethyl)[NMeA][dL][Dab][Cha]VTC[Dab][Aun]-OH; thioether N-14) | 19.2 nM
9 | Cc1cccc(C[C@@H]2NC(=O)[C@H](CC(=O)O)NC(=O)[C@H](Cc3ccc(OCC(=O)O)cc3)NC(=O)[C@H](CCNC(=O)C(C)(C)C)NC(=O)CSC[C@@H](C(=O)N[C@@H](CCN)C(=O)NCCCCCCCCCCC(=O)O)NC(=O)[C@H](CCC(N)=O)NC(=O)[C@H](C(C)C)NC(=O)[C@H](CC3CCCCC3)NC(=O)[C@H](CCN)NC(=O)[C@@H](CC(C)C)NC(=O)[C@H](C)N(C)C(=O)[C@H](Cc3ccc(OCC(=O)O)cc3)NC(=O)[C@H](Cc3ccc(-c4ccccc4)cc3)NC(=O)[C@H](Cc3ccc(C(=O)O)cc3)NC2=O)c1 [Example 1270] ({CH2CO}-[Dab](Piv)Y(Carboxymethyl)D[Phe(3-Me)][Phe(4-COOH)][Bip]Y(Carboxymethyl)[NMeA][dL][Dab][Cha]VQC[Dab][Aun]-OH; thioether N-14) | 61.9 nM
10 | CC(C)C[C@@H]1NC(=O)[C@H]([C@@H](C)c2c[nH]c3ccccc23)NC(=O)[C@H](CC(=O)O)NC(=O)[C@H](Cc2ccc(OCC(=O)O)cc2)NC(=O)[C@H](Cc2ccc(OCC(=O)O)cc2)NC(=O)CSC[C@@H](C(=O)NC2(C(=O)NCCOCCOCC(=O)NCCCCCCCCCCC(=O)O)CC2)NC(=O)[C@H](CCCNC(=N)N)NC(=O)[C@H](C(C)C)NC(=O)[C@H](CC2CCCCC2)NC(=O)[C@H](CCN)NC(=O)[C@@H](CC(C)C)NC(=O)[C@H](C)N(C)C(=O)[C@H](C(C)C)NC(=O)[C@H](Cc2ccc(-c3ccccc3)cc2)NC1=O [Example 1271] ({CH2CO}-Y(Carboxymethyl)Y(Carboxymethyl)D[Trp(βS-Me)]L[Bip]V[NMeA][dL][Dab][Cha]VRC[Ac3c][AEEA][Aun]-OH; thioether N-14) | 39.1 nM
11 | CC(C)C[C@@H]1NC(=O)[C@H]([C@@H](C)c2c[nH]c3ccccc23)NC(=O)[C@H](CC(=O)O)NC(=O)[C@H](Cc2ccc(OCC(=O)O)cc2)NC(=O)[C@H](Cc2ccc(OCC(=O)O)cc2)NC(=O)CSC[C@@H](C(=O)NC2(C(=O)NCCOCCOCC(=O)NCCCCCCCCCCC(=O)O)CC2)NC(=O)[C@H](CCC(N)=O)NC(=O)[C@H](C(C)C)NC(=O)[C@H](CC2CCCCC2)NC(=O)[C@H](CCN)NC(=O)[C@@H](CC(C)C)NC(=O)[C@H](C)N(C)C(=O)[C@H](C(C)C)NC(=O)[C@H](Cc2ccc(-c3ccccc3)cc2)NC1=O [Example 1272] ({CH2CO}-Y(Carboxymethyl)Y(Carboxymethyl)D[Trp(βS-Me)]L[Bip]V[NMeA][dL][Dab][Cha]VQC[Ac3c][AEEA][Aun]-OH; thioether N-14) | 40.3 nM
12 | CC(C)C[C@H]1NC(=O)[C@H](C)N(C)C(=O)[C@H](Cc2ccc(OCC(=O)O)cc2)NC(=O)[C@H](Cc2ccc(-c3ccccc3)cc2)NC(=O)[C@H](Cc2ccc(OCC(=O)O)cc2)NC(=O)[C@H]([C@@H](C)c2c[nH]c3ccccc23)NC(=O)[C@H](CC(=O)O)NC(=O)[C@H](Cc2ccc(OCC(=O)O)cc2)NC(=O)[C@H](CCCNC(=N)N)NC(=O)CSC[C@@H](C(=O)N[C@@H](CCN)C(=O)NCCCCCCCCCCC(=O)O)NC(=O)[C@H]([C@@H](C)O)NC(=O)[C@H](C(C)C)NC(=O)[C@H](CC2CCCCC2)NC(=O)[C@H](CCN)NC1=O [Example 1273] ({CH2CO}-RY(Carboxymethyl)D[Trp(βS-Me)]Y(Carboxymethyl)[Bip]Y(Carboxymethyl)[NMeA][dL][Dab][Cha]VTC[Dab][Aun]-OH; thioether N-14) | 327 nM
